This assay addresses T1, SIRT1 (Homo sapiens, UniProt Q96EB6).
T1 sequence (Q96EB6 1-747): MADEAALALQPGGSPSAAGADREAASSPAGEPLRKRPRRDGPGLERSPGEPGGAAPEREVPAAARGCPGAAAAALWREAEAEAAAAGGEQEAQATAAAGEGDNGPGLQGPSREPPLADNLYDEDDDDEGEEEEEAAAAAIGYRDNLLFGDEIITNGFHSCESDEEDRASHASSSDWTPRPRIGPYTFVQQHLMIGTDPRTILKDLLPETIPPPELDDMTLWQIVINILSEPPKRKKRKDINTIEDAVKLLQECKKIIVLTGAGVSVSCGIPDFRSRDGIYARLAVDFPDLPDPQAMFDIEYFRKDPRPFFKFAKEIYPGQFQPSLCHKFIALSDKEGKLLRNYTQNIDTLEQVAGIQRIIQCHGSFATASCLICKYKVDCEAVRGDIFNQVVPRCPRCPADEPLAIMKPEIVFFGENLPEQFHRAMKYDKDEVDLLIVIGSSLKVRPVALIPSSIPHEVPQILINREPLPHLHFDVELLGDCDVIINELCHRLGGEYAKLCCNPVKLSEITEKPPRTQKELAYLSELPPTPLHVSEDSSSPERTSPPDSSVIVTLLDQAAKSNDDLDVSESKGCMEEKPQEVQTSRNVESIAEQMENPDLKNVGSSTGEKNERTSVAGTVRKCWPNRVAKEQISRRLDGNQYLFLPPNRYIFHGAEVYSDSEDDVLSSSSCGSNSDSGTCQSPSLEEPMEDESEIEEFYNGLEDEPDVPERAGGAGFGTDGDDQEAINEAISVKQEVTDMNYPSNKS
Briefly: mass spectrometry based SIRT1 deacetylation assay (activation). The format is biochemical. The following applies: 0.5 μM peptide substrate, 120 μM βNAD+, 10 nM SIRT1, 25 min at 25° C.; for EC1.5 (concentration of test compound that results in 150% activation of SIRT1): NA = not active in the assay; for Emax: read-out: % FOLD ACT. (percent maximum fold activation of SIRT1).

Where only a bound is given, the exact number is not on record here.

The values below come from US8268862B2, “Sirtuin modulating compounds” (Sirtris Pharmaceuticals, Inc., priority 2007, dated 2012).

`O=C1CN(Cc2cnc3sc(-c4ccccc4NC(=O)c4ccc5ccccc5n4)nc3c2)CCN1` [Compound 103]: the “EC1.5 (concentration of test compound that results in 150% activation of SIRT1)” value is recorded as 230 NM and the Emax amounted to 273%.
For `O=C(Nc1ccccc1-c1nc2cc(CN3CC[C@@H](O)C3)cnc2s1)c1ccc2ccccc2n1` [Compound 104] the same measures were 200 NM and 221%.
On to `COc1cc(C(=O)Nc2ccccc2-c2nc3cc(CN4CCOCC4)cnc3s2)nc2ccccc12` [Compound 105], for which the “EC1.5 (concentration of test compound that results in 150% activation of SIRT1)” value was 1590 NM and the Emax was determined as 292%.
For the molecule `O=C(Nc1ccccc1-c1nc2cc(CN3CCOCC3)cnc2s1)c1cnc2ccccc2c1` [Compound 106], the “EC1.5 (concentration of test compound that results in 150% activation of SIRT1)” value is listed as 69840 NM and the Emax was 189%.
For `O=C(Nc1ccccc1-c1nc2cc(CN3CCOCC3)cnc2s1)c1ccc2cccnc2n1` [Compound 107] the same measures were 500 NM and 219%.
For `O=C(Nc1ccccc1-c1nc2cc(CN3CCSCC3)cnc2s1)c1ccc2ccccc2n1` [Compound 108] the same measures were 1060 NM and 178%.
Take `N[C@@H]1CCN(Cc2cnc3sc(-c4ccccc4NC(=O)c4ccc5ccccc5n4)nc3c2)C1` [Compound 109]: the “EC1.5 (concentration of test compound that results in 150% activation of SIRT1)” value was 270 NM and the Emax is > 500%.
On to `O=C(Nc1ccccc1-c1nc2cc(CN3CC[C@H](O)C3)cnc2s1)c1ccc2ccccc2n1` [Compound 110], for which the “EC1.5 (concentration of test compound that results in 150% activation of SIRT1)” value came out at 230 NM and the Emax is 307%.
For the molecule `O=C(Nc1ccccc1-c1nc2cc(CN3CCOCC3)cnc2s1)c1cn2ccccc2n1` [Compound 111], the “EC1.5 (concentration of test compound that results in 150% activation of SIRT1)” value is 1610 NM and the Emax was found to be 427%.
For `O=C(Nc1ccccc1-c1nc2cc(CN3CCOCC3)cnc2s1)c1cn2cccnc2n1` [Compound 112], the “EC1.5 (concentration of test compound that results in 150% activation of SIRT1)” value is reported as 2330 NM and the Emax is 375%.
Regarding `O=C(Nc1ccccc1-c1nc2cc(CN3CC[C@@H](F)C3)cnc2s1)c1ccc2ccccc2n1` [Compound 113], the “EC1.5 (concentration of test compound that results in 150% activation of SIRT1)” value is on record as 370 NM and the Emax amounted to 232%.
`O=C(Nc1ccccc1-c1nc2cc(CN3CCC(F)CC3)cnc2s1)c1ccc2ccccc2n1` [Compound 114]: the Emax stood at 146%.
Turning to `NC1CCN(Cc2cnc3sc(-c4ccccc4NC(=O)c4ccc5ccccc5n4)nc3c2)CC1` [Compound 115], the “EC1.5 (concentration of test compound that results in 150% activation of SIRT1)” value came to 620 NM and the Emax was > 500%.
On to `O=C(Nc1ccccc1-c1nc2cc(CNC3CCNCC3)cnc2s1)c1ccc2ccccc2n1` [Compound 116], for which the “EC1.5 (concentration of test compound that results in 150% activation of SIRT1)” value stood at 270 NM and the Emax was > 500%.
In the case of `O=C(Nc1ccccc1-c1nc2cc(CN[C@H]3CC[C@H](O)CC3)cnc2s1)c1ccc2ccccc2n1` [Compound 117], the “EC1.5 (concentration of test compound that results in 150% activation of SIRT1)” value worked out at 480 NM and the Emax was 324%.
With `O=C(Nc1ccccc1-c1nc2cc(CN3CCCC(F)(F)C3)cnc2s1)c1ccc2ccccc2n1` [Compound 118], the Emax was 100%.
Consider `N[C@@H]1CCN(Cc2cnc3sc(-c4ccccc4NC(=O)c4ccc5ccccc5n4)nc3c2)C1` [Compound 119], for which the “% FOLD ACT. (percent maximum fold activation of SIRT1)” value is given as >500% and the “EC1.5 (concentration of test compound that results in 150% activation of SIRT1)” value is reported as 390 NM.
`O=C(Nc1ccccc1-c1nc2cc(CN[C@H]3CCNC3)cnc2s1)c1ccc2ccccc2n1` [Compound 120]: the “EC1.5 (concentration of test compound that results in 150% activation of SIRT1)” value was determined as 820 NM and the Emax is > 500%.
For `O=C(Nc1ccccc1-c1nc2cc(CN[C@@H]3CCC[C@H]3O)cnc2s1)c1ccc2ccccc2n1` [Compound 121] the same measures were 750 NM and 291%.
On to `O=C(Nc1ccccc1-c1nc2cc(CN3CCNCC3)cnc2s1)c1cn2ccccc2n1` [Compound 123], for which the “EC1.5 (concentration of test compound that results in 150% activation of SIRT1)” value came out at 1940 NM and the Emax is 400%.
With `O=C(Nc1ccccc1-c1nc2cc(CN3CCNCC3)cnc2s1)c1cn2cc(F)ccc2n1` [Compound 124], the “EC1.5 (concentration of test compound that results in 150% activation of SIRT1)” value is on record as 1060 NM and the Emax turned out to be 314%.
For the molecule `O=C(Nc1ccccc1-c1nc2cc(CN3CCNCC3)cnc2s1)c1cn2cc(Cl)ccc2n1` [Compound 125], the Emax was determined as 437%.
For `O=C(Nc1ccccc1-c1nc2cc(CN3CCNCC3)cnc2s1)c1nc2ccc(F)cc2o1` [Compound 126], the Emax was determined as 100%.
On the same count and under the same terms, for `O=C(Nc1ccccc1-c1nc2cc(CN3CCOCC3)cnc2s1)c1cn2cc(Cl)ccc2n1` [Compound 127] the value was 143%.
With `O=C(Nc1ccccc1-c1nc2cc(CN3CCOCC3)cnc2s1)c1cn2cc(F)ccc2n1` [Compound 128], the “EC1.5 (concentration of test compound that results in 150% activation of SIRT1)” value is recorded as 1310 NM and the Emax turned out to be 227%.
Take `O=C(Nc1ccccc1-c1nc2cc(CN3CC[C@@H](F)C3)cnc2s1)c1cn2cc(C(F)(F)F)ccc2n1` [Compound 129]: the Emax is 100%.
Take `COCCN1CCN(Cc2cnc3sc(-c4ccccc4NC(=O)c4cnc5ccccc5n4)nc3c2)CC1` [Compound 130]: the “EC1.5 (concentration of test compound that results in 150% activation of SIRT1)” value was 990 NM and the Emax worked out at 161%.
Turning to `COCCN1CCN(Cc2cnc3sc(-c4ccccc4NC(=O)c4cc(C)nc(-c5ccccc5)n4)nc3c2)CC1` [Compound 131], the “EC1.5 (concentration of test compound that results in 150% activation of SIRT1)” value is 106 NM and the Emax was determined as 500%.
Consider `Cc1cc(C(=O)Nc2ccccc2-c2nc3cc(CN4CCOCC4)cnc3s2)nc(-c2ccccc2)n1` [Compound 132], for which the “EC1.5 (concentration of test compound that results in 150% activation of SIRT1)” value turned out to be 215 NM and the Emax stood at 500%.
For `COCCN1CCN(Cc2cnc3sc(-c4ccccc4NC(=O)c4cccc(-c5ccccc5Cl)n4)nc3c2)CC1` [Compound 133], the “EC1.5 (concentration of test compound that results in 150% activation of SIRT1)” value is 90 NM and the Emax came to 500%.
In the case of `COCCN1CCN(Cc2cnc3sc(-c4ccccc4NC(=O)c4cccc(-c5ccccc5F)n4)nc3c2)CC1` [Compound 134], the “EC1.5 (concentration of test compound that results in 150% activation of SIRT1)” value is 69 NM and the Emax stood at 500%.
As for `Cc1cc(C(=O)Nc2ccccc2-c2nc3cc(CN4CCCC4)cnc3s2)nc(-c2ccccc2)n1` [Compound 135], the “EC1.5 (concentration of test compound that results in 150% activation of SIRT1)” value is listed as 759 NM and the Emax came to 274%.
For `COCCN1CCN(Cc2cnc3sc(-c4ccccc4NC(=O)c4cccc(-c5ccc(C(F)(F)F)cc5)n4)nc3c2)CC1` [Compound 136] the same measures were 448 NM and 461%.
As to `COCCN1CCN(Cc2cnc3sc(-c4ccccc4NC(=O)c4cccc(-c5ccc(Cl)cc5)n4)nc3c2)CC1` [Compound 137], the “EC1.5 (concentration of test compound that results in 150% activation of SIRT1)” value is 214 NM and the Emax worked out at 448%.
As to `COCCN1CCN(Cc2cnc3sc(-c4ccccc4NC(=O)c4cccc(-c5cccc(Cl)c5)n4)nc3c2)CC1` [Compound 138], the “EC1.5 (concentration of test compound that results in 150% activation of SIRT1)” value is 88 NM and the Emax came out at 497%.
For `COCCN1CCN(Cc2cnc3sc(-c4ccccc4NC(=O)c4cccc(-c5ccccc5C(F)(F)F)n4)nc3c2)CC1` [Compound 139], the “EC1.5 (concentration of test compound that results in 150% activation of SIRT1)” value was 230 NM and the Emax came to 457%.
As to `COCCN1CCN(Cc2cnc3sc(-c4ccccc4NC(=O)c4cccc(-c5cccc(C(F)(F)F)c5)n4)nc3c2)CC1` [Compound 140], the “EC1.5 (concentration of test compound that results in 150% activation of SIRT1)” value is listed as 41 NM and the Emax worked out at 500%.
Take `COCCN1CCN(Cc2cnc3sc(-c4ccccc4NC(=O)c4cccc(-c5ccc(F)cc5)n4)nc3c2)CC1` [Compound 141]: the “EC1.5 (concentration of test compound that results in 150% activation of SIRT1)” value turned out to be 127 NM and the Emax was 487%.
`COCCN1CCN(Cc2cnc3sc(-c4ccccc4NC(=O)c4cccc(-c5ccc(F)cc5F)n4)nc3c2)CC1` [Compound 142]: the “EC1.5 (concentration of test compound that results in 150% activation of SIRT1)” value worked out at 394 NM and the Emax was found to be 378%.
For `COCCN1CCN(Cc2cnc3sc(-c4ccccc4NC(=O)c4cccc(-c5ccccc5C#N)n4)nc3c2)CC1` [Compound 143] the same measures were 2121 NM and 372%.
On to `COCCN1CCN(Cc2cnc3sc(-c4ccccc4NC(=O)c4cccc(-c5ccc(C#N)cc5)n4)nc3c2)CC1` [Compound 144], for which the “EC1.5 (concentration of test compound that results in 150% activation of SIRT1)” value is recorded as 559 NM and the Emax came out at 402%.
